This note sets out measurements from ChEMBL document CHEMBL4400537, “Virtual Screening Identifies Irreversible FMS-like Tyrosine Kinase 3 Inhibitors with Activity toward Resistance-Conferring Mutations” (J Med Chem, 2019).

Assay [1] deals with MV4-11. Nature of the assay: Cytotoxicity in human MV4-11 cells assessed as induction of cell death at 10 uM incubated for 72 hrs by CellTiter-Blue assay. Format: functional. Background: Alamar Blue is a resazurin reagent that responds to reducing activity.
The subject of assay [2] is MV4-11. Kind of assay: cells. The note with it: Homo sapiens, MV4-11, 72 h.
For assay [3], the system named is T1, Receptor-type tyrosine-protein kinase FLT3 (Homo sapiens), P36888 [D835Y].
T1 sequence (whole entry): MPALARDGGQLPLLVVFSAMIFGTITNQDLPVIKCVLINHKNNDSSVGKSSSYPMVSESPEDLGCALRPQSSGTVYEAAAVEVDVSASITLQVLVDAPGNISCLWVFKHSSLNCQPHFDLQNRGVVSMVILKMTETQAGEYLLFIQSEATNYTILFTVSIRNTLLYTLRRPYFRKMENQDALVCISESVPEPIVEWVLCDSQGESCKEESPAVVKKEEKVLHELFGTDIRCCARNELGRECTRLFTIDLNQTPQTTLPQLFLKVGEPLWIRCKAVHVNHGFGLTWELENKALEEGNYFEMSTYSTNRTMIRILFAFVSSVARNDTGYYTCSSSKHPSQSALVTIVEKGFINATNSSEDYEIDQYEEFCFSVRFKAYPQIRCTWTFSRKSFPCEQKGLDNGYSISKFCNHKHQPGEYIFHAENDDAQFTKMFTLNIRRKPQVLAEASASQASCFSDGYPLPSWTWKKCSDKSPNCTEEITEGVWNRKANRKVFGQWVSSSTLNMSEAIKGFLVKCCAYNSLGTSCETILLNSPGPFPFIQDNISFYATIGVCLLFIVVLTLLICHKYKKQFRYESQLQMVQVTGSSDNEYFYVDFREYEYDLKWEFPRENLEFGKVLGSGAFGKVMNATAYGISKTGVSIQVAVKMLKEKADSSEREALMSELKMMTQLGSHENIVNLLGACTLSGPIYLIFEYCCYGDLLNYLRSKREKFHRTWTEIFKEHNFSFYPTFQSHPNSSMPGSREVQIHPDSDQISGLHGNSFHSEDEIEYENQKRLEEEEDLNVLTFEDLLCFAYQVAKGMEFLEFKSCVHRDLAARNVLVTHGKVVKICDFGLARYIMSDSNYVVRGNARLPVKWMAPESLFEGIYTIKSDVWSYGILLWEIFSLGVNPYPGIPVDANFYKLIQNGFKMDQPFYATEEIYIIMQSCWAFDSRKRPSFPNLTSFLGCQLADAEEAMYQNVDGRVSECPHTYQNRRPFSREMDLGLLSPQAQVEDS
Nature of the assay: Inhibition of recombinant human FLT3 D835Y mutant (571 to 993 residues) expressed in baculovirus expression system at 100 nM preincubated for 30 mins in presence of 1000 fold glutathione followed by myelobasic protein addition and measured after 120 mins relative to control.

The test system is the same in assay [4]. Nature of the assay: Inhibition of recombinant human FLT3 D835Y mutant (571 to 993 residues) expressed in baculovirus expression system at 100 nM preincubated for 24 hrs in presence of 1000 fold glutathione followed by myelobasic protein addition and measured after 120 mins relative to control.
Assay [5] has as its target Receptor-type tyrosine-protein kinase FLT3 (Homo sapiens, UniProt P36888, D835Y). Nature of the assay: Irreversible inhibition of recombinant human FLT3 D835Y mutant (571 to 993 residues) expressed in baculovirus expression system preincubated for 5 to 30 mins followed by myelobasic protein addition measured after 120 mins in presence of ATP by ADP-Glo assay. In general terms: ADP-Glo first removes unused ATP, then detects ADP through luciferase.

For assay [6], the target named is Receptor-type tyrosine-protein kinase FLT3 (Homo sapiens) (UniProt P36888). Kind of assay: Inhibition of human N-terminal GST-tagged FLT3 expressed in baculovirus expression system at 100 nM relative to control.
For assay [7], the system named is T1, Receptor-type tyrosine-protein kinase FLT3 (Homo sapiens), P36888 [D835Y]. Kind of assay: Inhibition of human FLT3 D835Y mutant expressed in baculovirus expression system at 100 nM relative to control.
Assay [8] has as its target Mast/stem cell growth factor receptor Kit (Homo sapiens) (UniProt P10721). Nature of the assay: Inhibition of human N-terminal GST-tagged c-KIT expressed in baculovirus expression system at 100 nM relative to control.
Assay [9] deals with Mitogen-activated protein kinase 3 (Homo sapiens) (UniProt P27361). Kind of assay: Inhibition of full length N-terminal GST-tagged human ERK1 expressed in baculovirus expression system assessed as residual activity at 100 nM relative to control.
Assay [10] deals with Mitogen-activated protein kinase 1 (Homo sapiens) (UniProt P28482). Nature of the assay: Inhibition of human N-terminal GST-tagged ERK2 (14 to 429 residues) expressed in baculovirus expression system assessed as residual activity at 100 nM relative to control.
The target of assay [11] is Glycogen synthase kinase-3 alpha (Homo sapiens) (UniProt P49840). Kind of assay: Inhibition of human N-terminal His-tagged GSK3alpha expressed in baculovirus expression system assessed as residual activity at 100 nM relative to control.
Assay [12] deals with Glycogen synthase kinase-3 beta (Homo sapiens) (UniProt P49841). Kind of assay: Inhibition of human N-terminal His-tagged GSK3beta expressed in baculovirus expression system assessed as residual activity at 100 nM relative to control.
For assay [13], the target named is Platelet-derived growth factor receptor alpha (Homo sapiens) (UniProt P16234). Kind of assay: Inhibition of full length human N-terminal 6His-tagged PDGFRalpha expressed in baculovirus expression system at 100 nM relative to control.
Assay [14] deals with Platelet-derived growth factor receptor beta (Homo sapiens) (UniProt P09619). Nature of the assay: Inhibition of full length human N-terminal GST-tagged PDGFRbeta expressed in baculovirus expression system at 100 nM relative to control.
The target in assay [15] is T2, Receptor-type tyrosine-protein kinase FLT3 (Homo sapiens, UniProt P36888). Nature of the assay: Binding affinity to auto-inhibited form of wild type human N-terminal GST-tagged FLT3 expressed in baculovirus expression.
Assay [16] addresses Proto-oncogene tyrosine-protein kinase receptor Ret (Homo sapiens) (UniProt P07949). Kind of assay: Inhibition of full length human N-terminal GST-tagged RET expressed in baculovirus expression system at 100 nM relative to control.
Assay [17] addresses Tyrosine-protein kinase Lyn (Homo sapiens) (UniProt P07948). Nature of the assay: Inhibition of full length human N-terminal 6His-tagged LYN expressed in baculovirus expression system at 100 nM relative to control.
Assay [18] addresses Tyrosine-protein kinase Lck (Homo sapiens) (UniProt P06239). Nature of the assay: Inhibition of full length human N-terminal 6His-tagged LCK expressed in baculovirus expression system at 100 nM relative to control.
Assay [19] addresses Tyrosine-protein kinase receptor UFO (Homo sapiens) (UniProt P30530). Kind of assay: Inhibition of full length human N-terminal 6His-tagged AXL expressed in baculovirus expression system at 100 nM relative to control.
The target of assay [20] is Interleukin-1 receptor-associated kinase 1 (Homo sapiens) (UniProt P51617). Nature of the assay: Inhibition of full length human N-terminal 6His-tagged IRAK1 expressed in baculovirus expression system at 100 nM relative to control.
Assay [21] addresses Receptor-type tyrosine-protein kinase FLT3 (Homo sapiens, UniProt P36888, D835H).
Assay [22] has as its target Receptor-type tyrosine-protein kinase FLT3 (Homo sapiens, UniProt P36888, ITD).
The target of assay [23] is Receptor-type tyrosine-protein kinase FLT3 (Homo sapiens, UniProt P36888, D835V/ITD).
Assay [24] concerns the target T2, Receptor-type tyrosine-protein kinase FLT3.
For assay [25], the system named is T1, Receptor-type tyrosine-protein kinase FLT3 (Homo sapiens), P36888 [D835Y]. Nature of the assay: Inhibition of covalent binding of 100 uM (Z)-N-(2-(2-(4-(2,8-Diethyl-5,5-difluoro-1,3,7,9-tetramethyl-5H-4lambda4,5lambda4-dipyrrolo[1,2-c:2',1'-f ][1,3,2]diazaborinin-10-yl)phenoxy)-acetamido)ethyl)-2,4-dimethyl-5-((2-oxo-5-(vinylsulfon-amido)-indolin-3-ylidene)methyl)-1H-pyrrole-3-carboxamide to recombinant human FLT3 D835Y mutant (571 to 993 residues) expressed in baculovirus expression system at 100 uM by Western blot analysis. On the technique in general: Immunoblotting shows a protein as a band on a membrane.

The next assay concerns THP-1. Kind of assay: cells. The note with it: Homo sapiens, THP-1, 72 h.
Another assay has as its system Jurkat. Kind of assay: cells. The note with it: Homo sapiens, 72 h.
In the next assay the test system is MOLM-14. Kind of assay: cells. To be noted: Homo sapiens, MOLM-14, 72 h.

The structures appear in SMILES notation. Calls of active or inactive are those of the source. The calls are words filed in the database; no cut-off is given here.

Chain of Proto-oncogene tyrosine-protein kinase receptor Ret (Homo sapiens) (P07949 whole entry): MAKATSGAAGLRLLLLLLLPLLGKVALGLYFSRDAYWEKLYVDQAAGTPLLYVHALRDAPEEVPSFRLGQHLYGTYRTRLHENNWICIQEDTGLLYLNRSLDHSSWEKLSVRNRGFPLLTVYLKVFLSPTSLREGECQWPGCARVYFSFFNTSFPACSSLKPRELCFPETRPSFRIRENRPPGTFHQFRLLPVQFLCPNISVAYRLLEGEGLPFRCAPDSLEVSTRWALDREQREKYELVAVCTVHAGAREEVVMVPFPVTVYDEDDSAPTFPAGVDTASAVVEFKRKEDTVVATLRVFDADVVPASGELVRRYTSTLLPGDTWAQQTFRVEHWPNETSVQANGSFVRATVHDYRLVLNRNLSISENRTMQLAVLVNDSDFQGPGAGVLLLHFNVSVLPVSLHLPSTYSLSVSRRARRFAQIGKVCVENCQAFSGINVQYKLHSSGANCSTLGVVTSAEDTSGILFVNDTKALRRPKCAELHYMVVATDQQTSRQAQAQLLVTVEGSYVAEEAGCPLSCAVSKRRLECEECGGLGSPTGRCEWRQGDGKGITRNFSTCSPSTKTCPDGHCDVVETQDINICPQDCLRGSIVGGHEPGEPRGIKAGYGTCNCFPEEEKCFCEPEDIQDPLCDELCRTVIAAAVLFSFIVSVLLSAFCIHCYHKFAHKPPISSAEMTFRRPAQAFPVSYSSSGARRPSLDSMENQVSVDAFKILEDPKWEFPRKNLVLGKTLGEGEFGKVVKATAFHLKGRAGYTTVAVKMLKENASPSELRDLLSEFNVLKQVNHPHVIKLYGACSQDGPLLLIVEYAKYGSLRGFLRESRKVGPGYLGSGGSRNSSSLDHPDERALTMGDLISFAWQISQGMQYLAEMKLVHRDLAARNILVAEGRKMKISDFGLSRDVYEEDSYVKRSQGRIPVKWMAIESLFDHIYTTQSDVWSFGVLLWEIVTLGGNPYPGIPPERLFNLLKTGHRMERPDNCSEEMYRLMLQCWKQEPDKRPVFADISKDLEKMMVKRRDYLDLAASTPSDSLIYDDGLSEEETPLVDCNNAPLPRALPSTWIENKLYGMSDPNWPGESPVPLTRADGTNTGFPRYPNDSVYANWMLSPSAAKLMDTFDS
Chain of Platelet-derived growth factor receptor beta (Homo sapiens) (P09619 whole entry): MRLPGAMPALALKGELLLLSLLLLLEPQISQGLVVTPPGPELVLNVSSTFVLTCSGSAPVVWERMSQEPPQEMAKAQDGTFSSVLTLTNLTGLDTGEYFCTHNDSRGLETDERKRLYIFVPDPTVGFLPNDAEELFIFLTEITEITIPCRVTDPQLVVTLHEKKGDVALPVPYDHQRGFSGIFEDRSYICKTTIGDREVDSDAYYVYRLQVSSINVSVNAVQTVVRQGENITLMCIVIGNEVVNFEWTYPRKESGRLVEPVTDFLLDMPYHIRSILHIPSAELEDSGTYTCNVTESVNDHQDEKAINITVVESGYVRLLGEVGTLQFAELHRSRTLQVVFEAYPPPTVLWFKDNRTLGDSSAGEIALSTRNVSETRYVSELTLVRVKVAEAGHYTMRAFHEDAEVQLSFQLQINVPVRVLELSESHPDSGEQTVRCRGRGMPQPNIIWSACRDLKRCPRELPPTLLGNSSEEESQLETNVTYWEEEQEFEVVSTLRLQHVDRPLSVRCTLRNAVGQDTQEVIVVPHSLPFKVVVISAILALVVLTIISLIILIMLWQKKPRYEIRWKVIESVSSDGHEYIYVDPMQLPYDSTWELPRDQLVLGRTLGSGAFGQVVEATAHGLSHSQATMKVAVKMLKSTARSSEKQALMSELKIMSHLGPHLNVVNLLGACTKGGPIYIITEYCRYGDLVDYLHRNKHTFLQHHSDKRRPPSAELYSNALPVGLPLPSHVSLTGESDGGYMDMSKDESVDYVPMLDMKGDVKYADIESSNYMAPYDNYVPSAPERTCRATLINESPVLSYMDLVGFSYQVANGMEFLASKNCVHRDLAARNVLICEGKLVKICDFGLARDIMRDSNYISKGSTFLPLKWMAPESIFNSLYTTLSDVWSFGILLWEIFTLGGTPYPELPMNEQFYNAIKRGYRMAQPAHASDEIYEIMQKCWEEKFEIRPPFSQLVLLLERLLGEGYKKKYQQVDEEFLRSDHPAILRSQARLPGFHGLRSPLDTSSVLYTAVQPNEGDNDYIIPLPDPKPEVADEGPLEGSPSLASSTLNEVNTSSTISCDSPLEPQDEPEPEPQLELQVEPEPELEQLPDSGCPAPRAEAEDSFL
Chain of Glycogen synthase kinase-3 alpha (Homo sapiens) (P49840 2-483 limits assumed): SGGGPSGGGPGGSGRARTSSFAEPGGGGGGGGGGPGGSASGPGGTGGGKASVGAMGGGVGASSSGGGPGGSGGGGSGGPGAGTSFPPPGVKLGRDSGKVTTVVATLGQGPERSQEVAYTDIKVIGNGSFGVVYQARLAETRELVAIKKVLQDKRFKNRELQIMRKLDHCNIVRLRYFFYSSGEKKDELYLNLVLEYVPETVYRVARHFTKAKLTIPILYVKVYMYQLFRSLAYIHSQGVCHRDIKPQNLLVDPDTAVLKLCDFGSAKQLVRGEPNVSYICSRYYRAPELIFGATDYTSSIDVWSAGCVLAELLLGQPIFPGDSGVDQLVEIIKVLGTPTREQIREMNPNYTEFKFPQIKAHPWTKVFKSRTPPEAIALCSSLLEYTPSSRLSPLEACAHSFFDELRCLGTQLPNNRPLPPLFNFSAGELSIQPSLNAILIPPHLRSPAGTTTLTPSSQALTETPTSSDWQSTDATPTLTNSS
Chain of Mitogen-activated protein kinase 3 (Homo sapiens) (P27361 whole entry, the tested form may be a part): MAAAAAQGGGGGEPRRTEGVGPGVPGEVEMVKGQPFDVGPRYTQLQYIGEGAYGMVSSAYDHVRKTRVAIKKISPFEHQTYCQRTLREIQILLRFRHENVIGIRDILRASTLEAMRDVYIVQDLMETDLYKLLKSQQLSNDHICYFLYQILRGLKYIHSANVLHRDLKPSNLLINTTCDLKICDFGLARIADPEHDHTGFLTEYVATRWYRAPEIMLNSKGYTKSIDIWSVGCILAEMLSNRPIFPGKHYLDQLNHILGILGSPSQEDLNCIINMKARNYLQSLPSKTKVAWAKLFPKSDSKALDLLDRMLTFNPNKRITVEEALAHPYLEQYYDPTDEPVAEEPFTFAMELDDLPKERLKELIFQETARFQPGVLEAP
Chain of Interleukin-1 receptor-associated kinase 1 (Homo sapiens) (P51617 whole entry, looked up): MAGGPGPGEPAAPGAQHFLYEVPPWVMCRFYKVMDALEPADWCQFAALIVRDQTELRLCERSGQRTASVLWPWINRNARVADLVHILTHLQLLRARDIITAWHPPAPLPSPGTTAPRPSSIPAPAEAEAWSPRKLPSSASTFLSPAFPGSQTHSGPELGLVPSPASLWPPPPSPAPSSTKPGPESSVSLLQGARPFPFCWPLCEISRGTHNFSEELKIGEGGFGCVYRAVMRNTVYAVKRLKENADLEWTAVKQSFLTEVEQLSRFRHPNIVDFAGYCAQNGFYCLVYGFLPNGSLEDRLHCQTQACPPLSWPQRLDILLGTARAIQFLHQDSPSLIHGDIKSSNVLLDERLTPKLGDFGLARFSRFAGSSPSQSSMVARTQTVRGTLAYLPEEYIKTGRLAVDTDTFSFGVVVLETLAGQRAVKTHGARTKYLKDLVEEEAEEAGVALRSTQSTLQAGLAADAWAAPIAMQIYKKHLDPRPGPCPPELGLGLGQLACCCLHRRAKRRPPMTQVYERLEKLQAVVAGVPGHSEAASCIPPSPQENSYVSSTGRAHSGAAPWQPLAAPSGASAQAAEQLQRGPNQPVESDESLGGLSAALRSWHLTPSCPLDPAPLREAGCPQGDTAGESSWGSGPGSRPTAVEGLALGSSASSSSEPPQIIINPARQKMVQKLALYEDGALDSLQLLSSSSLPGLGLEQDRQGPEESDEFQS
Chain of Mast/stem cell growth factor receptor Kit (Homo sapiens) (P10721 whole entry): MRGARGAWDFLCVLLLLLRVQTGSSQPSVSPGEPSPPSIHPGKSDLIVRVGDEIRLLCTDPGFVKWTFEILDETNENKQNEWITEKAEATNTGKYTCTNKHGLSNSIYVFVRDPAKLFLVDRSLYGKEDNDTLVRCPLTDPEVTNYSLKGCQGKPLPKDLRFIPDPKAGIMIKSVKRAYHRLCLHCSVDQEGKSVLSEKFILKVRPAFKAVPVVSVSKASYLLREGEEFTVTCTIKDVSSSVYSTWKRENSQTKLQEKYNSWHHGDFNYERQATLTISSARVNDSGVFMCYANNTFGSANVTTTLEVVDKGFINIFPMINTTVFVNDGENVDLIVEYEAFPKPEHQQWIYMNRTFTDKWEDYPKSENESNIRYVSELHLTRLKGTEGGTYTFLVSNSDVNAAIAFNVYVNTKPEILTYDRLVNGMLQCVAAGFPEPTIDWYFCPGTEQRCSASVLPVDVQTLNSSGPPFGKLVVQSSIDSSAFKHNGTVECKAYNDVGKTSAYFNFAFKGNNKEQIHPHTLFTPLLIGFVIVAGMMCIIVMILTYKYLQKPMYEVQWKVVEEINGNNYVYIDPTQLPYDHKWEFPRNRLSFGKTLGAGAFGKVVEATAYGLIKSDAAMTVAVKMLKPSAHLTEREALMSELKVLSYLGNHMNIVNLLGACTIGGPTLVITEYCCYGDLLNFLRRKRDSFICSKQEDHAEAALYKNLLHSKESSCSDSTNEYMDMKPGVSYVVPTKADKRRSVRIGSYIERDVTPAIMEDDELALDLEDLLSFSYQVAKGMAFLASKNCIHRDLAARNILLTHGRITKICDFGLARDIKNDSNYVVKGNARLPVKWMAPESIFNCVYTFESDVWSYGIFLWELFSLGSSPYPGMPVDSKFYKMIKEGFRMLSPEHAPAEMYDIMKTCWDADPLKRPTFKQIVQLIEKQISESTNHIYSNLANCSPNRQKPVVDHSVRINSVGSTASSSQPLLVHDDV

As a reminder, the IC50 is the point on the concentration scale where inhibition reaches its midpoint. Low values mean greater potency, high ones weaker potency. With `Cc1cc(Nc2ccnc(Nc3ccccc3)n2)n[nH]1`, in the assay with MV4-11 [1], the Activity is 89%. Moreover, in the assay with MV4-11 [2], the IC50 was over 1 nM.
As a reminder, the inhibition is the share of the control response that was lost under treatment. One may read the Kd as the free concentration of one partner at which half of the binding sites on the other are occupied at equilibrium, for simple one-to-one binding. For `C=CS(=O)(=O)Nc1ccc2c(c1)/C(=C/c1[nH]c(C)c(C(=O)NCCN(CC)CC)c1C)C(=O)N2`, the inhibition in [3] was 68%; in [4] it was 37%; in assay [6] it was 95%; in assay [7], 99%; in assay [8], 34%; in assay [13], 24%. Also, the inhibition was 14% in assay [14]; 96% in assay [16]; 81 to 93% in assay [17]; 81 to 93% in [18]; 81 to 93% in [19]; 81 to 93% in assay [20]. The inhibition in assay [25] came to 28%. Also, in [5], the Ki came to 1.98 nM. The inhibition result in assay [9], in assay [10], in assay [11] and in [12] was “inactive” throughout. Besides, the Kd was 65 nM in [15]; 1.3 nM in assay [21]; 5.8 nM in [22]; 0.83 nM in assay [23]; 2.3 nM in [24]. Moreover, the IC50 was 6 nM with MV4-11 [2], over 1000 nM in the assay with THP-1, over 1000 nM in the assay with Jurkat and 7.8 nM with MOLM-14.
